Results as given in PubChem BioAssay AID1963846 (Molecular Pharmacology Branch, DTP, NCI, 2024).

Tested on: 454973-116-R2-J3-PDC complex spheroid viability
Experiment: Anticancer human tumor 454973-116-R2-J3-PDC patient-derived pancreatic carcinoma cell line growth inhibition [POLQ]
Conditions: for IC50: curve of first compound; for viability, T/C: stronger effect = lower value
Outline: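 Growth inhibition in 3D: complex spheroids (tumor PDC, HUVEC, MSC) treated with POLQ inhibitor combinations; where Cmax unknown, highest tested concentration 10 microM, except SN-38 at 1 microM.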

[1] = second compound 0.0316 µM, first compound 0.00316 µM
[2] = second compound 0.0316 µM, first compound 0.01 µM
[3] = second compound 0.0316 µM, first compound 0.0316 µM
[4] = second compound 0.0316 µM, first compound 0.1 µM
[5] = second compound 0.0316 µM, first compound 0.316 µM
[6] = second compound 0.0316 µM, first compound 1 µM
[7] = second compound 0.1 µM, first compound 0.00316 µM
[8] = second compound 0.1 µM, first compound 0.01 µM
[9] = second compound 0.1 µM, first compound 0.0316 µM
[10] = second compound 0.1 µM, first compound 0.1 µM
[11] = second compound 0.1 µM, first compound 0.316 µM
[12] = second compound 0.1 µM, first compound 1 µM
[13] = second compound 0.316 µM, first compound 0.00316 µM
[14] = second compound 0.316 µM, first compound 0.01 µM
[15] = second compound 0.316 µM, first compound 0.0316 µM
[16] = second compound 0.316 µM, first compound 0.1 µM
[17] = second compound 0.316 µM, first compound 0.316 µM
[18] = second compound 0.316 µM, first compound 1 µM
[19] = second compound 1 µM, first compound 0.00316 µM
[20] = second compound 1 µM, first compound 0.01 µM
[21] = second compound 1 µM, first compound 0.0316 µM
[22] = second compound 1 µM, first compound 0.1 µM
[23] = second compound 1 µM, first compound 0.316 µM
[24] = second compound 1 µM, first compound 1 µM
[25] = second compound 3.16 µM, first compound 0.00316 µM
[26] = second compound 3.16 µM, first compound 0.01 µM
[27] = second compound 3.16 µM, first compound 0.0316 µM
[28] = second compound 3.16 µM, first compound 0.1 µM
[29] = second compound 3.16 µM, first compound 0.316 µM
[30] = second compound 3.16 µM, first compound 1 µM
[31] = second compound 10 µM, first compound 0.00316 µM
[32] = second compound 10 µM, first compound 0.01 µM
[33] = second compound 10 µM, first compound 0.0316 µM
[34] = second compound 10 µM, first compound 0.1 µM
[35] = second compound 10 µM, first compound 0.316 µM
[36] = second compound 10 µM, first compound 1 µM
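Note: spheroids exposed to drugs for seven days before measurement.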
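Throughout, for viability, T/C: percent viability relative to DMSO vehicle control wells taken as 100%.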

## C=CCn1c(=O)c2cnc(Nc3ccc(N4CCN(C)CC4)cc3)nc2n1-c1cccc(C(C)(C)O)n1 + Nc1ccc(C#CCN(C(=O)Cc2ncc(C(F)(F)F)cc2C(F)(F)F)c2ccc(F)cc2)nn1
Second compound 0.0316 µM
  IC50: 0.455 µM
Second compound 0.1 µM
  IC50: 0.451 µM
Second compound 0.316 µM
  IC50: 0.515 µM
Second compound 1 µM
  IC50: 0.408 µM
Second compound 3.16 µM
  IC50: 0.475 µM
Second compound 10 µM
  IC50: 0.423 µM
[1]
  viability, T/C: 108%
[2]
  viability, T/C: 100%
[3]
  viability, T/C: 104%
[4]
  viability, T/C: 99%
[5]
  viability, T/C: 68.7%
[6]
  viability, T/C: 9.62%
[7]
  viability, T/C: 106%
[8]
  viability, T/C: 102%
[9]
  viability, T/C: 102%
[10]
  viability, T/C: 104%
[11]
  viability, T/C: 68.5%
[12]
  viability, T/C: 8.41%
[13]
  viability, T/C: 99.3%
[14]
  viability, T/C: 109%
[15]
  viability, T/C: 106%
[16]
  viability, T/C: 107%
[17]
  viability, T/C: 79.3%
[18]
  viability, T/C: 10.2%
[19]
  viability, T/C: 105%
[20]
  viability, T/C: 101%
[21]
  viability, T/C: 114%
[22]
  viability, T/C: 114%
[23]
  viability, T/C: 62.3%
[24]
  viability, T/C: 6.99%
[25]
  viability, T/C: 105%
[26]
  viability, T/C: 114%
[27]
  viability, T/C: 115%
[28]
  viability, T/C: 114%
[29]
  viability, T/C: 72.7%
[30]
  viability, T/C: 8.66%
[31]
  viability, T/C: 116%
[32]
  viability, T/C: 116%
[33]
  viability, T/C: 129%
[34]
  viability, T/C: 112%
[35]
  viability, T/C: 65%
[36]
  viability, T/C: 6.21%

## CC[C@@]1(O)C(=O)OCc2c1cc1n(c2=O)Cc2cc3c(CN(C)C)c(O)ccc3nc2-1 + Nc1ccc(C#CCN(C(=O)Cc2ncc(C(F)(F)F)cc2C(F)(F)F)c2ccc(F)cc2)nn1
Second compound 0.0316 µM
  IC50: 0.0157 µM
Second compound 0.1 µM
  IC50: 0.0158 µM
Second compound 0.316 µM
  IC50: 0.015 µM
Second compound 1 µM
  IC50: 0.0156 µM
Second compound 3.16 µM
  IC50: 0.0161 µM
Second compound 10 µM
  IC50: 0.0172 µM
Second compound 0.0316 µM, first compound 0.000316 µM
  viability, T/C: 105%
Second compound 0.0316 µM, first compound 0.001 µM
  viability, T/C: 106%
[1]
  viability, T/C: 98.9%
[2]
  viability, T/C: 73.7%
[3]
  viability, T/C: 13.2%
[4]
  viability, T/C: 10.1%
Second compound 0.1 µM, first compound 0.000316 µM
  viability, T/C: 107%
Second compound 0.1 µM, first compound 0.001 µM
  viability, T/C: 104%
[7]
  viability, T/C: 97.3%
[8]
  viability, T/C: 73.2%
[9]
  viability, T/C: 14.2%
[10]
  viability, T/C: 10.4%
Second compound 0.316 µM, first compound 0.000316 µM
  viability, T/C: 106%
Second compound 0.316 µM, first compound 0.001 µM
  viability, T/C: 102%
[13]
  viability, T/C: 107%
[14]
  viability, T/C: 71.2%
[15]
  viability, T/C: 10.7%
[16]
  viability, T/C: 12.3%
Second compound 1 µM, first compound 0.000316 µM
  viability, T/C: 111%
Second compound 1 µM, first compound 0.001 µM
  viability, T/C: 110%
[19]
  viability, T/C: 94.5%
[20]
  viability, T/C: 73.2%
[21]
  viability, T/C: 13.2%
[22]
  viability, T/C: 12.3%
Second compound 3.16 µM, first compound 0.000316 µM
  viability, T/C: 111%
Second compound 3.16 µM, first compound 0.001 µM
  viability, T/C: 113%
[25]
  viability, T/C: 98.7%
[26]
  viability, T/C: 76.5%
[27]
  viability, T/C: 11.9%
[28]
  viability, T/C: 10.3%
Second compound 10 µM, first compound 0.000316 µM
  viability, T/C: 122%
Second compound 10 µM, first compound 0.001 µM
  viability, T/C: 110%
[31]
  viability, T/C: 104%
[32]
  viability, T/C: 86.1%
[33]
  viability, T/C: 8.55%
[34]
  viability, T/C: 9.22%

## CCc1c2c(nc3ccc(O)cc13)-c1cc3c(c(=O)n1C2)COC(=O)[C@]3(O)CC + Nc1ccc(C#CCN(C(=O)Cc2ncc(C(F)(F)F)cc2C(F)(F)F)c2ccc(F)cc2)nn1
Second compound 0.0316 µM
  IC50: < 0.00316 µM
Second compound 0.1 µM
  IC50: < 0.00316 µM
Second compound 0.316 µM
  IC50: < 0.00316 µM
Second compound 1 µM
  IC50: < 0.00316 µM
Second compound 3.16 µM
  IC50: < 0.00316 µM
Second compound 10 µM
  IC50: < 0.00316 µM
[1]
  viability, T/C: 25.3%
[2]
  viability, T/C: 11.3%
[3]
  viability, T/C: 6.56%
[4]
  viability, T/C: 4.56%
[5]
  viability, T/C: 1.97%
[6]
  viability, T/C: 1.11%
[7]
  viability, T/C: 19%
[8]
  viability, T/C: 10.4%
[9]
  viability, T/C: 6.53%
[10]
  viability, T/C: 3.88%
[11]
  viability, T/C: 2.75%
[12]
  viability, T/C: 1%
[13]
  viability, T/C: 19.8%
[14]
  viability, T/C: 11.3%
[15]
  viability, T/C: 8.55%
[16]
  viability, T/C: 4.38%
[17]
  viability, T/C: 2.3%
[18]
  viability, T/C: 0.79%
[19]
  viability, T/C: 21.4%
[20]
  viability, T/C: 8.67%
[21]
  viability, T/C: 6.81%
[22]
  viability, T/C: 3.42%
[23]
  viability, T/C: 1.98%
[24]
  viability, T/C: 0.59%
[25]
  viability, T/C: 18.6%
[26]
  viability, T/C: 9.44%
[27]
  viability, T/C: 7.09%
[28]
  viability, T/C: 4.06%
[29]
  viability, T/C: 2.05%
[30]
  viability, T/C: 0.6%
[31]
  viability, T/C: 19%
[32]
  viability, T/C: 10.2%
[33]
  viability, T/C: 5.83%
[34]
  viability, T/C: 2.67%
[35]
  viability, T/C: 1.43%
[36]
  viability, T/C: 0.54%

## O=C(c1cc(Cc2n[nH]c(=O)c3ccccc23)ccc1F)N1CCN(C(=O)C2CC2)CC1 + Nc1ccc(C#CCN(C(=O)Cc2ncc(C(F)(F)F)cc2C(F)(F)F)c2ccc(F)cc2)nn1
Second compound 0.0316 µM
  IC50: > 10 µM
Second compound 0.1 µM
  IC50: > 10 µM
Second compound 0.316 µM
  IC50: 9.69 µM
Second compound 1 µM
  IC50: > 10 µM
Second compound 3.16 µM
  IC50: > 10 µM
Second compound 10 µM
  IC50: > 10 µM
[3]
  viability, T/C: 101%
[4]
  viability, T/C: 101%
[5]
  viability, T/C: 90.8%
[6]
  viability, T/C: 91%
Second compound 0.0316 µM, first compound 3.16 µM
  viability, T/C: 95.1%
Second compound 0.0316 µM, first compound 10 µM
  viability, T/C: 58.9%
[9]
  viability, T/C: 101%
[10]
  viability, T/C: 101%
[11]
  viability, T/C: 102%
[12]
  viability, T/C: 102%
Second compound 0.1 µM, first compound 3.16 µM
  viability, T/C: 83.5%
Second compound 0.1 µM, first compound 10 µM
  viability, T/C: 62.2%
[15]
  viability, T/C: 102%
[16]
  viability, T/C: 105%
[17]
  viability, T/C: 103%
[18]
  viability, T/C: 98.2%
Second compound 0.316 µM, first compound 3.16 µM
  viability, T/C: 90.5%
Second compound 0.316 µM, first compound 10 µM
  viability, T/C: 48.2%
[21]
  viability, T/C: 104%
[22]
  viability, T/C: 105%
[23]
  viability, T/C: 114%
[24]
  viability, T/C: 102%
Second compound 1 µM, first compound 3.16 µM
  viability, T/C: 97.4%
Second compound 1 µM, first compound 10 µM
  viability, T/C: 54.6%
[27]
  viability, T/C: 111%
[28]
  viability, T/C: 112%
[29]
  viability, T/C: 102%
[30]
  viability, T/C: 99.9%
Second compound 3.16 µM, first compound 3.16 µM
  viability, T/C: 101%
Second compound 3.16 µM, first compound 10 µM
  viability, T/C: 59.7%
[33]
  viability, T/C: 117%
[34]
  viability, T/C: 113%
[35]
  viability, T/C: 113%
[36]
  viability, T/C: 112%
Second compound 10 µM, first compound 3.16 µM
  viability, T/C: 101%
Second compound 10 µM, first compound 10 µM
  viability, T/C: 57.2%
